Measurements: patent publication US9284324B2, “Phenylpyrrole derivative” (TAISHO PHARMACEUTICAL CO., LTD, priority 2011, dated 2016)
Several values for one entry are separate records, joined by “and”; a condition that tells them apart may be missing. Equal entries are not always repeated.

What was measured:
[1] = target: T1, H3 receptor (Rattus norvegicus, UniProt Q9QYN8); assay: Rat H3 receptor binding test (N-α-methyl[3H]histamine); conditions: rat frontal cortex membrane fraction, N-α-methyl[3H]histamine 0.75 nM
T1 construct: The frontal cortex dissected from rats was homogenized; from tissue; host or cells: rat frontal cortex membrane fraction
Method: (Test 1: Rat H3 Receptor Binding Test)
The frontal cortex dissected from rats was homogenized with a Teflon homogenizer in a 50 mM Tris-HCl buffer solution (pH 7.4) containing a protease inhibitor (Complete EDTA-free; Roche Diagnostics) and 5 mM EDTA. The homogenate was centrifuged at 48,000×g for 15 minutes. The supernatant was removed and the pellet was suspended in a 50 mM Tris-HCl buffer solution (pH 7.4) containing 5 mM EDTA and centrifuged at 48,000×g for 15 minutes. The supernatant was removed and the pellet was suspended in a 50 mM Tris-HCl buffer solution (pH 7.4) containing 5 mM EDTA to give a membrane fraction. The membrane fraction (the protein content in the final reaction mixture: 75 μg), N-α-methyl[^3H]histamine (PerkinElmer; final concentration: 0.75 nM) and a test drug were mixed and subjected to reaction at room temperature for an hour. After the end of the reaction, the reaction mixture was suction filtered through a 96-well GF/C filter plate pretreated with 0.3% polyethyleneimine; the filters were then washed five times with a 50 mM Tris-HCl buffer solution (pH 7.4) containing 5 mM EDTA. After the washing, the filters were dried and a scintillator was added to measure the residual radioactivity on the filter with TopCount (PerkinElmer).
The residual radioactivity in the presence of 10 μM thioperamide was taken as indicative of nonspecific binding and the difference from the residual radioactivity in the absence of thioperamide was taken as indicative of specific binding. Each of the test drugs was dissolved and diluted in DMSO at varying concentrations to plot a dose-response curve from the corresponding residual radio activities; the concentration of test drug that inhibited the specific binding by 50% (IC50) was determined from this curve.

[2] = target: T2, histamine H3 receptor (Rattus norvegicus, UniProt Q9QYN8); assay: [35S]GTP-γ-S binding test; assay type: biochemical; conditions: rat frontal cortex membrane fraction, R(−)-α-methyl histamine 300 nM, [35S]GTP-γ-S 0.3 nM
T2 construct: The frontal cortex dissected from rats was homogenized; from tissue; host or cells: rat frontal cortex membrane fraction
Method: (Test 2: [^35S]GTP-γ-S Binding Test)
The frontal cortex dissected from rats was homogenized with a Teflon homogenizer in a 30 mM Tris-HCl buffer solution (pH 7.4) containing 2.5 mM calcium chloride dihydrate. The homogenate was centrifuged at 48,000×g for 15 minutes. The supernatant was removed and the pellet was suspended in a 30 mM Tris-HCl buffer solution (pH 7.4) containing 2.5 mM calcium chloride dihydrate and centrifuged at 48,000×g for 15 minutes. The supernatant was removed and the pellet was suspended in a 30 mM Tris-HCl buffer solution (pH 7.4) containing 2.5 mM calcium chloride dihydrate and after incubation at 37° C. for 30 minutes, the suspension was centrifuged at 48,000×g for 15 minutes. The resulting supernatant was removed and the pellet was suspended in a 20 mM HEPES buffer solution (pH 7.4) containing 100 mM sodium chloride and 10 mM magnesium chloride to give a membrane fraction. […] After the washing, the filters were dried and a scintillator was added to measure the residual radioactivity on the filter with TopCount (PerkinElmer).
The residual radioactivity in the absence of R(−)-α-methyl histamine was taken as indicative of nonspecific binding and the difference from the residual radioactivity in the presence of R(−)-α-methyl histamine was taken as indicative of specific binding. […]

[3] = Rat in vivo pharmacokinetic study; set-up: species or system SD rats; conditions: for concentration at 1 h / Kp at 1 h: SD, rat, in vivo, po, 3 mg/kg
Method: (Test 3: Rat In Vivo Pharmacokinetic Study)
SD rats were given a single oral administration of Compound No. 3, 4 or 7 at a dose of 3 mg/kg and an hour after the administration, the compound's distribution among the plasma, brain, and cerebrospinal fluid was checked. Quantification was effected by a high-performance chromatography/tandem mass spectrometer API 4000 (LC-MS/MS; AB Sciex). As it turned out, Compound Nos. 3, 4 and 7 had good brain/plasma movement ratios of 4.5, 2.9 and 2.2, respectively, with the corresponding intracerebral concentrations of 78.2 ng/g, 7.06 ng/g and 408 ng/g.

[4] = target: T3, P-glycoprotein (Human MDR1) (Homo sapiens, UniProt P08183); assay: P-glycoprotein substrate recognition test; assay type: in vitro ADME; conditions: ratio of apical→basal and basal→apical membrane permeation coefficients; for efflux ratio at 10 μM: human, LLC-PK1, LLC-GA5-COL300 cells on transwell
T3 construct: expressed in transfected cells; host or cells: LLC-GA5-COL300 (derived from pig kidney LLC-PK1)
Method: (Test 4: P-Glycoprotein Substrate Recognition Test)
LLC-GA5-COL300 cells (Human MDR1 expressing system derived from pig kidney derived, cultured renal epithelial cell line LLC-PK1) were cultured on a transwell. Immediately before the test, the culture medium was replaced by Hank's balanced salt solution (HBSS) and the test was then conducted. A solution of an assay compound adjusted to a final concentration of 10 μM was added to the donor side of LLC-GA5-COL300 cells and after the passage of a predetermined period of time, a specified quantity of […] was sampled from the acceptor side. The concentration of the assay compound in the sample was measured by LC-MS/MS. From the amounts of the compound that accumulated and passed into the acceptor side, membrane permeation coefficients (×10^−6 cm/sec) were calculated for apical→basal and basal→apical directions and their relative ratio (efflux ratio) was determined to evaluate the P-glycoprotein substrate recognition.

[5] = cerebrospinal fluid/plasma movement ratio
[6] = SD rats, single oral 3 mg/kg, an hour after administration

T1 sequence (Q9QYN8 whole entry): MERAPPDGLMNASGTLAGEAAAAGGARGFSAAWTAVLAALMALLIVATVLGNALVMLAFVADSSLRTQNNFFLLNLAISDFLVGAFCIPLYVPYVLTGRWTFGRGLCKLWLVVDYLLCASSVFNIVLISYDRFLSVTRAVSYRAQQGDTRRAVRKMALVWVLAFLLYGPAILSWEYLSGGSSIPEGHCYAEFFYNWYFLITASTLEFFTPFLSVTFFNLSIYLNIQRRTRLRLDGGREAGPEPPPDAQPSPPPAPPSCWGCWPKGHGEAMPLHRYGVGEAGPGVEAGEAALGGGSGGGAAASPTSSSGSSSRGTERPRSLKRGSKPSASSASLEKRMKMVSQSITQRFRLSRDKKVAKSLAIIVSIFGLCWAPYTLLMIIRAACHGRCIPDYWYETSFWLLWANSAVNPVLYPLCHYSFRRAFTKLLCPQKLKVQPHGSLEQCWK
T3 sequence (P08183 whole entry): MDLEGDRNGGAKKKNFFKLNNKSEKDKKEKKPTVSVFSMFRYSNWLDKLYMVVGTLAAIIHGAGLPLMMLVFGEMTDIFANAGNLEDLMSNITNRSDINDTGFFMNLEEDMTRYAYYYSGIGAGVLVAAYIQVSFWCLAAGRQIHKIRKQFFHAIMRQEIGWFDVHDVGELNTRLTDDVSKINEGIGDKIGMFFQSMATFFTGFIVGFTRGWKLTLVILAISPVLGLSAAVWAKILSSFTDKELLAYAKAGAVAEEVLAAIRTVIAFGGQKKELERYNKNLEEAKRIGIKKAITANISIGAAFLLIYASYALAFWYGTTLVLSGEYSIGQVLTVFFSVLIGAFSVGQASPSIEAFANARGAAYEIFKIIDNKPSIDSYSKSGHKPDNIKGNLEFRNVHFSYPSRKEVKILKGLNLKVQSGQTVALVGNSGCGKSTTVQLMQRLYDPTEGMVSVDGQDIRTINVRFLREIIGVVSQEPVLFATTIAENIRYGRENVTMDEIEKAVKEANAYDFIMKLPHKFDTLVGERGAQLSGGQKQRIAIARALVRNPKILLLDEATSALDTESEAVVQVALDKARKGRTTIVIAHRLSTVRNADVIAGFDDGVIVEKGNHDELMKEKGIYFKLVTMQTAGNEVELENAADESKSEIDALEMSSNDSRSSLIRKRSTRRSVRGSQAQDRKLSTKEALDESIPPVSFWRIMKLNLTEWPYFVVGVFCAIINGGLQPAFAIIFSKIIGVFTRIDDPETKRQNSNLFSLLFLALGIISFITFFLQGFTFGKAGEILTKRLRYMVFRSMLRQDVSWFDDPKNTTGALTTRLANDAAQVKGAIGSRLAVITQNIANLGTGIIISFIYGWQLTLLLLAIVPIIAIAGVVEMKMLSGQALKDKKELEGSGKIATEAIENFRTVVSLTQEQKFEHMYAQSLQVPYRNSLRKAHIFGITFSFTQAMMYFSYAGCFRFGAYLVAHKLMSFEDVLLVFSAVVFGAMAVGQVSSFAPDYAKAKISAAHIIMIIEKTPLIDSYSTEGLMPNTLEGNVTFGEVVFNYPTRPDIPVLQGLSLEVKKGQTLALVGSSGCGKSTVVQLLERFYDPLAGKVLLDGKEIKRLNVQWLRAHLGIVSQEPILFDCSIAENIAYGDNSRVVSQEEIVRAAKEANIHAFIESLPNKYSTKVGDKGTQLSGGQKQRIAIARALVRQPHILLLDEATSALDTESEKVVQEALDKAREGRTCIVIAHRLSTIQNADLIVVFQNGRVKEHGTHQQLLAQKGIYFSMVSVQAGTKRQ
T2 sequence (Q9QYN8 whole entry): as the sequence (Q9QYN8 whole entry) above

Row | Molecule | IC50 [1] [nM] | efflux ratio at 10 μM [4] | also measured
1 | CNC(=O)c1ccn(-c2ccc(OC3CCN(C4CCC4)CC3)cc2)c1 [compound 7, 1-{4-[(1-cyclobutylpiperidin-4-yl)oxy]phenyl}-N-methyl-1H-pyrrole-3-carboxamide] | 5.9 | 1 | IC50 [2]: ≤ 100 nM; concentration at 1 h [3]: 408 ng/g and 50.5 ng/mL; Kp at 1 h ([3]; brain/plasma movement ratio): 2.2; Kp at 1 h [3, 5]: 0.3
2 | CN(C)C(=O)c1ccn(-c2ccc(OC3CCN(C4CCC4)CC3)cc2)c1 [compound 6] | 3.2 | 1.2 | –
3 | O=C(O)c1ccn(-c2ccc(OC3CCN(C4CCC4)CC3)cc2)c1 [Compound No. 2, 1-{4-[(1-cyclobutylpiperidin-4-yl)oxy]phenyl}-1H-pyrrole-3-carboxylic acid] | 34 | – | –
4 | C[C@@H]1CCCN1CCCOc1ccc(-n2ccc(C(=O)N3CCCC3)c2)cc1 [Compound No. 16, [1-(4-{3-[(2R)-2-methylpyrrolidin-1-yl]propoxy}phenyl)-1H-pyrrol-3-yl](pyrrolidin-1-yl)methanone] | 1.5 | 3.1 | –
5 | (1-{4-[(1-cyclobutylpiperidin-4-yl)oxy]phenyl}-1H-pyrrol-3-yl)(pyrrolidin-1-yl)methanol [compound 4] | 1.1 | – | brain/plasma movement ratio [3, 6]: 2.9; intracerebral concentration [3, 6]: 7.06 ng/g; Efflux ratio ([4]; LLC-GA5-COL300 cells on transwell, 10 μM): 1.3
6 | (1-{4-[(1-cyclobutylpiperidin-4-yl)oxy]phenyl}-1H-pyrrol-3-yl)(piperidin-1-yl)methanol [compound 5] | 3.2 | – | –
7 | COC(=O)c1ccn(-c2ccc(OC3CCN(C4CCC4)CC3)cc2)c1 [Compound No. 1, methyl 1-{4-[(1-cyclobutylpiperidin-4-yl)oxy]phenyl}-1H-pyrrole-3-carboxylate] | 12 | – | –
8 | CC(C)N1CCC(Oc2ccc(-n3ccc(C(=O)N4CCCC4)c3)cc2)CC1 [Compound No. 17, (1-{4-[(1-isopropylpiperidin-4-yl)oxy]phenyl}-1H-pyrrol-3-yl)(pyrrolidin-1-yl)methanone] | 1.1 | – | –
9 | CC(C)(C)N1CCC(Oc2ccc(-n3ccc(C(=O)N4CCCC4)c3)cc2)CC1 [Compound No. 19, (1-{4-[(1-tert-butylpiperidin-4-yl)oxy]phenyl}-1H-pyrrol-3-yl)(pyrrolidin-1-yl)methanone] | 1.7 | – | –
10 | Cc1cc(C(=O)N2CCCC2)c(C)n1-c1ccc(OC2CCN(C3CCC3)CC2)cc1 [Compound No. 15, (1-{4-[(1-cyclobutylpiperidin-4-yl)oxy]phenyl}-2,5-dimethyl-1H-pyrrol-3-yl)(pyrrolidin-1-yl)methanone] | 6.6 | – | –
11 | O=C(c1ccn(-c2ccc(OC3CCN(C4CCC4)CC3)cc2)c1)N1CCC1 [Compound No. 3, azetidin-1-yl (1-{4-[(1-cyclobutylpiperidin-4-yl)oxy]phenyl}-1H-pyrrol-3-yl)methanone] | 1.7 | 1.4 | IC50 [2]: ≤ 100 nM; concentration at 1 h [3]: 78.2 ng/g and 5.75 ng/mL; Kp at 1 h ([3]; brain/plasma movement ratio): 4.5; Kp at 1 h [3, 5]: 0.3
12 | CNC(=O)c1ccn(-c2ccc(OC3CCN(C(C)C)CC3)cc2)c1 [Compound No. 18, 1-{4-[(1-isopropylpiperidin-4-yl)oxy]phenyl}-N-methyl-1H-pyrrole-3-carboxamide] | 38 | – | –
13 | CNC(=O)c1ccn(-c2ccc(OC3CCN(C(C)(C)C)CC3)cc2)c1 [Compound No. 20, 1-{4-[(1-tert-butylpiperidin-4-yl)oxy]phenyl}-N-methyl-1H-pyrrole-3-carboxamide] | 21 | – | –

The next lines start with results.

Row | IC50 [1] [nM] | efflux ratio at 10 μM [4] | Molecule | also measured
14 | 3.7 | – | O=C(NC1CCC1)c1ccn(-c2ccc(OC3CCN(C4CCC4)CC3)cc2)c1 [compound 13, N-cyclobutyl-1-{4-[(1-cyclobutylpiperidin-4-yl)oxy]phenyl}-1H-pyrrole-3-carboxamide] | –
15 | 6.8 | – | C[C@@H]1CN(C(=O)c2ccn(-c3ccc(OC4CCN(C5CCC5)CC4)cc3)c2)C[C@H](C)O1 [compound 10] | –
16 | 9.5 | 1.6 | NC(=O)c1ccn(-c2ccc(OC3CCN(C4CCC4)CC3)cc2)c1 [compound 8, 1-{4-[(1-cyclobutylpiperidin-4-yl)oxy]phenyl}-1H-pyrrole-3-carboxamide] | –
17 | 5.2 | – | CC(C)(C)NC(=O)c1ccn(-c2ccc(OC3CCN(C4CCC4)CC3)cc2)c1 [compound 12, N-tert-butyl-1-{4-[(1-cyclobutylpiperidin-4-yl)oxy]phenyl}-1H-pyrrole-3-carboxamide] | –
18 | 2.5 | 1.6 | O=C(c1ccn(-c2ccc(OC3CCN(C4CCC4)CC3)cc2)c1)N1CCOCC1 [compound 9, (1-{4-[(1-cyclobutylpiperidin-4-yl)oxy]phenyl}-1H-pyrrol-3-yl)(morpholin-4-yl)methanone] | –
19 | 1 | – | O=C(c1ccn(-c2ccc(OC3CCN(C4CCC4)CC3)cc2)c1)N1CC2(COC2)C1 [compound 11, (1-{4-[(1-cyclobutylpiperidin-4-yl)oxy]phenyl}-1H-pyrrol-3-yl)(2-oxa-6-azaspiro[3.3]hepta-6-yl)methanone] | –
